Consider 22 molecules from PubChem BioAssay (NCI).

Each structure is given as a SMILES string.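 These data come from cells grown in 96-well plates and exposed to compound for 48 hours at five concentrations. At the GI50, growth is halved. Definition used: TGI = concentration required for complete inhibition of growth.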

Common to all, as to experiment: growth of human tumour cells (NCI), 48 h
In experiment [1] the test system is CAKI-1 renal.
The test system of experiment [2] is HCC-2998 colon.
In experiment [3] the test system is HCT-15 colon.
The subject of experiment [4] is K-562 leukemia.
For experiment [5], the system named is M14 melanoma.
Experiment [6] has as its system OVCAR-4 ovarian.
Experiment [7] deals with OVCAR-5 ovarian.
The test system of experiment [8] is SNB-19 CNS.
Experiment [9] deals with CCRF-CEM leukemia.

For the molecule `CC(=O)[CH-]C(=O)c1ccccc1.CC(=O)[CH-]C(=O)c1ccccc1.O=S(=O)([O-])c1cc([O-])c2c([O-])cc(S(=O)(=O)[O-])cc2c1.[Na+].[Ti+4]`, the GI50 in experiment [1] is above 100 µM; in [2] it was above 100 µM; in [3], above 100 µM; in experiment [4], above 100 µM; in [5] it was above 100 µM; in experiment [6], 68.6 µM. The GI50 in experiment [7] and in experiment [8] was above 100 µM in each case. Also, the TGI in experiment [1], in experiment [2], in experiment [3], in [4], in experiment [5] and in experiment [6] was above 100 µM throughout. The TGI in [7] and in [8] was above 100 µM each time.
Consider `CCc1cccc(C)c1NC(=O)CC1C(=O)Nc2ccccc2S1=O` (configuration not stated), for which the TGI in experiment [1], in experiment [2], in experiment [3], in [4], in experiment [5] and in experiment [6] was above 100 µM each time. Moreover, the TGI in [7] and in [8] was above 100 µM each time.
With `N#Cc1c(-c2ccco2)cc(-c2ccc(N)cc2)[nH]c1=O`, the TGI in experiment [9], in [2], in experiment [3], in experiment [4], in [5] and in experiment [6] was above 100 µM throughout. For the same molecule, the TGI in [7] and in [8] was above 100 µM each time.
Consider `O=C1C2[C@@H](C(=O)N1c1ccc(Br)cc1)C13C(=CC2([N+](=O)[O-])[C@@H]2C(=O)N(c4ccc(Br)cc4)C(=O)[C@@H]21)c1ccccc1N3c1ccccc1` (some centres not stated), for which the TGI in [9], in experiment [2], in [3], in experiment [4], in experiment [5] and in [7] was above 100 µM in each case. Also, in experiment [8], the TGI is above 100 µM.
With `NC(=S)N/N=C1\CCCC\C1=C/c1ccccc1`, the TGI in experiment [9], in [2], in experiment [3], in [4], in experiment [5] and in [6] was above 100 µM in each case. Further, the results for the TGI in experiment [7] and in experiment [8] were 70.4 µM and above 100 µM, respectively.
On to `CC12CCC(=O)N1c1cccnc1N2` (configuration not stated), for which the TGI in experiment [1], in experiment [9], in experiment [2], in experiment [3], in experiment [4] and in experiment [5] was above 100 µM each time. Moreover, the TGI in experiment [6] and in experiment [7] was above 100 µM throughout.
`Cc1ccc2c(c1-c1ccccc1)C(=O)OC2`: the TGI in [1], in experiment [9], in experiment [2], in [3], in [4] and in [5] was above 100 µM each time. Moreover, the TGI in experiment [6] and in experiment [8] was above 100 µM each time.
Take `O=C1C=CC(=CC=C2C=CN(CCCCCCCCCCC(=O)NCCCCCCCCCCCC(=O)O)C=C2)C=C1`: the TGI in experiment [1], in experiment [9], in [2], in [3], in [4] and in experiment [5] was above 100 µM in each case. In addition, the TGI in experiment [6], in experiment [7] and in experiment [8] was above 100 µM each time.
For the molecule `CCOC(=O)C(C)(c1c(C)[nH]c2ccccc12)c1c(C)[nH]c2ccccc12`, the TGI came out at 45.4 µM in [1]; 58 µM in [9]; 45.2 µM in [2]; 32.5 µM in experiment [3]; 42.4 µM in experiment [4]; 29.8 µM in experiment [5]. Besides, the TGI in [6] amounted to 32 µM; in [7], 35.5 µM.
Turning to `NC(CCc1ncc(C(=O)O)s1)C(=O)O` (configuration not stated), the TGI in experiment [1], in experiment [9], in experiment [2], in [3], in experiment [4] and in experiment [5] was above 100 µM each time.
Consider `Cc1ccc(N2C(=O)N(c3ccc(C)cc3)C3(SC=NN3C)C2=O)cc1` (configuration not stated), for which the TGI in [1], in experiment [9], in experiment [2], in [4], in experiment [5] and in [6] was above 100 µM each time. The molecule also had a TGI in [8] above 100 µM.
Regarding `CC(C)(C)OC(=O)N1C2CCCC23O[C@@H]1c1cc2c(cc1C3=O)OCO2` (some centres not stated), the TGI in [1] was 87.1 µM; in experiment [9], above 100 µM; in experiment [4] it was above 100 µM; in experiment [5], above 100 µM; in [6], above 100 µM; in experiment [7], above 100 µM. Also, the TGI in experiment [8] is above 100 µM.
Turning to `Cc1ccc2[c](c1)[Sn]([c]1ccccc1)([c]1ccccc1)[c]1cc(C)ccc1N2C`, the GI50 in experiment [2] is 26.4 µM; in [3], 36.9 µM; in experiment [5], 80.5 µM; in experiment [6] it was 41.6 µM; in experiment [7], 70.3 µM; in [8], above 100 µM. Further, the TGI in experiment [2], in [3], in experiment [5], in experiment [6], in [7] and in experiment [8] was above 100 µM throughout.
Regarding `NCCN.O=C([O-])[O-].O=C([O-])[O-].[Co+3].[K+]`, the GI50 in experiment [9], in experiment [3], in experiment [4], in [5], in experiment [6] and in experiment [7] was above 100 µM throughout. Besides, in [8], the GI50 is above 100 µM. The TGI in [9], in [3], in experiment [4], in [5], in experiment [6] and in experiment [7] was above 100 µM in each case. In addition, the TGI in experiment [8] is above 100 µM.
On to `CCCCCCCCCCCCCCCCCCC1=C(O)C(=O)C=C(OC)C1=O`, for which the TGI in experiment [1] was above 100 µM; in experiment [2], above 100 µM; in [3] it was 97.5 µM; in experiment [5], above 100 µM; in [6], above 100 µM; in experiment [7] it was above 100 µM. In experiment [8], this molecule returned a TGI above 100 µM.
With `COc1cc2c(cc1OC)C1Cc3cc(OC)c(OC)cc3N1CC2` (configuration not stated), the TGI was 88.5 µM in experiment [1]; above 100 µM in experiment [9]; above 100 µM in experiment [2]; above 100 µM in experiment [4]; 53.4 µM in [5]; 57.7 µM in experiment [6]. For the same molecule, the TGI in [7] and in experiment [8] was above 100 µM each time.
Turning to `COC(=O)c1c[nH]cc1CCCCc1c[nH]cc1C(=O)OC`, the TGI in [1], in [9], in experiment [2], in [4], in experiment [6] and in experiment [7] was above 100 µM each time. Moreover, the TGI in experiment [8] is above 100 µM.
Consider `CCOc1ccc(N=Cc2c3ccccc3nc3ccccc23)cc1`, for which the TGI in experiment [1] is above 100 µM; in [9], 24 µM; in [2], above 100 µM; in experiment [3], above 100 µM; in experiment [4], above 100 µM; in experiment [5], above 100 µM. Also, the TGI in experiment [6] and in experiment [8] was above 100 µM in each case.
Turning to `O=C1CC2CCN(C(=O)c3ccccc3)CC2CCN1` (configuration not stated), the TGI in experiment [9], in experiment [2], in experiment [3], in experiment [4], in [5] and in [6] was above 100 µM each time. The TGI in experiment [7] and in experiment [8] was above 100 µM throughout.
In the case of `CCC[CH2][Sn]1([CH2]CCC)[O]CC(COc2c(Cl)cc(Cl)cc2Cl)[O]1` (configuration not stated), the GI50 is 0.511 µM in experiment [1]; 1.51 µM in experiment [2]; 1.66 µM in experiment [3]; 1.72 µM in [5]; 1.91 µM in experiment [6]; 2.02 µM in experiment [7]. Besides, in [8], the GI50 was 1.35 µM. Moreover, the TGI in experiment [1] was 1.65 µM; in experiment [2] it was 2.95 µM; in experiment [3], 3.31 µM; in [5], 3.13 µM; in experiment [6] it was 3.76 µM; in experiment [7], 3.46 µM. The molecule further showed a TGI in [8] of 2.64 µM.
For `CCOC(=O)C1=C(Nc2ccc(Br)cc2)OCC1=O`, the TGI in experiment [1], in [9], in experiment [2], in [3], in experiment [5] and in [6] was above 100 µM throughout. The molecule also came in with a TGI in experiment [8] above 100 µM.
As for `Cc1ccc(C)c(N2C(=O)C(=O)C(c3nc4ccccc4o3)/C(=N/N)C2=O)c1` (configuration not stated), the TGI in experiment [1], in [9], in experiment [2], in [3], in experiment [5] and in experiment [6] was above 100 µM in each case. For the same molecule, the TGI in experiment [8] is above 100 µM.
